Assay results from patent US12503426B2, “Synthetic derivatives of oleoyl-lysophosphatidylinositol (oleoyl-LPI) and uses thereof” (LIPOVEXA SRL, priority 2017, dated 2025).

Experiments:
GPR55 mRNA = experiment: siRNA knockdown of GPR55 mRNA by real-time RT-PCR; format: cell-based, murine; settings: Glutag cells, 48 hours post transfection
Experimental: Transfection was performed according to the “Lipofectamine transfection protocol” (Invitrogen, Life Technologies) and optimised for a 6-well plate format. Briefly, cells were plated in complete growth medium at a density of 3.0×10^5/well in a 6-well plate and incubated at 37° C./5% CO2. Twenty-four hours later, when cells were ˜60% confluent, transfection was performed in RNAse-free conditions. 300 nM of total siRNA pool and 4.0 μl of Lipofectamine transfection reagent were diluted in separate tubes in Optimem and incubated for 5 min at room temperature (RT). The contents of the tubes were carefully mixed and incubated again for 20 min at RT. Cells were washed twice with sterile 1×PBS and incubated in 300 μL of Optimem. After 20 min, transfection complexes were added to the cells drop wise. Cells were then incubated for 4 hours before adding Optimem containing 30% serum without antibiotic. Cells were further incubated at 37° C./5% CO2 for 48 h before secretion experiment. […]
Transfection efficiency was quantified by real-time RT-PCR. […]
RT-qPCR was performed according to manufacturer's instructions (Cat. No. K0222, Fermentas). […] The relative changes in gene expression quantification were calculated using the relative ddCT analysis mode of the ABI 7500 Real-Time PCR system software.

ERK = ERK phosphorylation by Western blot, NCI-H716 cells; format: cell-based, human; settings: pre-treatment 1 hour, 50 μM, then oleoyl-LPI
Experimental: When cell cultures reached 80-90%, media were removed and cells were washed twice with 1×PBS. The cells were lysed in 150 μl (for one well of a 6 well plate) of Triton X-100 lysis buffer, containing phosphatase inhibitor cocktail (1:1000) (Sigma Aldrich, UK) and protease inhibitor (1:1000, Sigma Aldrich, UK). Cells were detached with scrapers and lysate were collected and centrifuged at 10,000 rpm, 4° C. for 5 minutes. The supernatant was then transferred to a 1.5 ml microcentrifuge tube and used for protein quantification. Cell lysates were stored at −20° C. for longer storage. All lysates were prepared on ice.
Non-specific antibody binding was prevented by incubating the nitrocellulose membrane in 5% milk in PBS-0.05% Tween-20 (v/v) for 30 minutes on a rotating plate. The membrane was then washed in PBS-0.05% Tween-20 (v/v) and then incubated with the primary antibody diluted in PBS-0.05% Tween-20 (v/v) on a rotating plate overnight at 4° C. After 24 hours, the membrane was washed 5× for 5 minutes with PBS-0.05% Tween-20 (v/v), and then incubated on a rotating plate with the appropriate secondary antibody for 1 hour at room temperature. […]

Glutag cells = experiment: GLP-1 secretion by Glutag cells; format: cell-based, murine; settings: Glutag cells, inhibitor 1 hour before oleoyl-LPI (PD98059 50 μM; H89 10 μM)
Experimental: Glutag cells were maintained in low glucose DMEM (Sigma) (1 g/L) containing 2.0 mM L-glutamine, 1.0 mM sodium pyruvate and supplemented with 10% FBS, 100 IU/ml penicillin, 100 μg/ml streptomycin at a 37° C. and 5% CO2.
(§1) Approximately 80,000 Glutag cells were plated in poly-L-lysine-coated 24-well culture plates and grown to about 80% confluence. NCI-H716 cells were seeded on growth factor reduced Matrigel™ (Becton Dickinson, Bedford, MA) in DMEM medium, supplemented with 10% FBS the day before the experiment. For NCI-H716 cells, approximately 25,000 cells were needed for this secretion experiment in order to have good stimulation with lower basal GLP-1 secretion. In brief, Glutag and NCI-H716 cells were washed twice and then incubated for 2 h with FBS-free DMEM containing 1% (M:C) alone (negative control), 10 μM forskolin as positive control (Sigma-Aldrich), or with different concentrations of Oleoyl-LPI. M:C was used as a solvent to prepare stock solutions of fatty acid derivatives and inhibitors. For secretion experiments, medium and cells were collected separately.
(§2) In separate studies, GLUTag or NCI-H716 cells were pre-treated for 1 hour with medium alone (1% DMSO, negative control), PD98059 (50 μM; Sigma Chemical Co.), H89 (10 μM; Santa Cruz) followed by treatment with oleoyl-LPI (20 μM), OEA (10 μM), AR231453(1 μM), PMA (10 μM) or forskolin (10 μM, positive control) in the presence of inhibitors, as appropriate, for about 2 h. Medium GLP-1 secretion was calculated as total GLP-1 content of medium normalised for the basal secretion of the control.
(§3) In order to investigate the role of different LPI species in enteroendocrine cells, murine (Glutag) and human (NCI-H716) L-cells were stimulated with the following different species of LPI: Arachidonyl-LPI, Stearoyl-LPI, Heptadecenoyl-LPI and oleoyl-LPI, as well as with OEA and LPC. Experiments were performed in duplicate, n=4 and the level of total GLP-1 was measured by ELISA.

NCI-H716 cells = experiment: GLP-1 secretion by NCI-H716 cells (Examples 2-8); format: cell-based, human; settings: NCI-H716 cells, inhibitor 1 hour before oleoyl-LPI (PD98059 50 μM; H89 10 μM)
Experimental: NCI-H716 cells were maintained in 75 cm^2 tissue culture flasks (Corning) in RPMI 1640 media containing 2.0 mM L-glutamine, 1.5 g/L sodium bicarbonate, 10 mM HEPES buffer, 1.0 mM sodium pyruvate, and 4.5 g/L glucose and supplemented with 10% FBS at a 37° C. and 5% CO2. When plating for experiment, cell adhesion and endocrine differentiation were initiated by growing cells in dishes coated with growth factor reduced Matrigel diluted at the ratio of 1:2 (Becton Dickinson, Bedford, MA) in high-glucose DMEM, 10% FBS, 2 mM glutamine, 100 IU/ml penicillin, and 100 μg/ml streptomycin as described previously by De Bruine, a P., Dinjens, W. N., van der Linden, E. P., Pijls, M. M., Moerkerk, P. T., & Bosman, F. T. (1993) The American Journal of Pathology, Vol 142(3), pp 773-782, the disclosure of which is incorporated herein in its entirety by reference.
as §1, §2, §3

Compound	knockdown of GPR55 mRNA (GPR55 mRNA)	ERK phosphorylation (ERK)	oleoyl-LPI induced GLP-1 secretion with inhibitor pre-treatment (Glutag cells)	oleoyl-LPI induced GLP-1 secretion with inhibitor pre-treatment (NCI-H716 cells)
GPR55 siRNA: murine siRNA against GPR55, ACAGGGAAGUGGAGAGAUA (SEQ ID NO: 3) (listed as RNA, chemistry not given here; listed as Mus musculus)	80%			
COc1cccc(-c2cc(=O)c3ccccc3o2)c1N [PD98059]		substantially reduced ERK phosphorylation	significantly reduced oleoyl-LPI induced GLP-1 secretion	significantly reduced oleoyl-LPI induced GLP-1 secretion
